Measurements published in patent publication US20070082818A1, “Agrochemical compositions” (priority 2003, published 2007).
Structures can show the parent of a compound that is named as a salt.

Legend:
[1] = test system: eight representative weed species; assay: Bioperformance enhancement of paraquat by amine/amide adjuvants, moving track sprayer; type: in vivo; details: paraquat dichloride spray at 10, 20 and 40 g/ha paraquat ion, 200 l/ha; adjuvant 0.5% by weight of spray volume (aminoethylpiperazine 0.625%); 7 days after treatment; mean over all species and combined rates; 0% no herbicidal effect, 100% complete kill
Protocol: The bioperformance enhancement of paraquat in the presence of amines or amides of the present invention was evaluated. An aqueous formulation of paraquat dichloride containing 0.5% by weight of the quinuclidine (based on the weight of the amine salt), N-(aminopropyl) morphiline (based on the weight of the parent amine) or 1-(2-hydroxethyl-2-imidazolidinone) (based on the weight of the amide), all based on total spray volume was applied using a moving track sprayer to eight representative weed species at 10, 20 and 40 g/ha (based on paraquat ion). The spray volume was equivalent to 200 l/ha. For aminoethylpiperazine the formulation contained 0.625% by weight of the amine (based on the parent amine).
The results are compared with an equivalent formulation containing only paraquat chloride.

[2] = type: physicochemical
Description: It is to be understood that the term physical incompatibility in relation to adjuvants used in bipyridyl compositions indicates either gross separation of one or more components of the composition which may or may not be accompanied by a significant change in formulation rheology or bulk homogeneity. It is not necessarily essential that the composition is fully homogeneous in a strict physical sense provided that the composition is substantially homogeneous in the bulk. Thus a slight separation of a second phase may be acceptable provided that the separated phase remains fully dispersed in the bulk. […] This is obviously undesirable for a number of reasons. The term physical compatibility indicates the reverse of physical incompatibility as defined above.

[3] = test system: drilled broad leaved & grass weeds; assay: Field trials of 200 g/l paraquat compositions applied as foliar spray; type: in vivo; details: 39% and 51% of the conventional adjuvant system substituted
Protocol: Field Trials were conducted at 8 locations where the target plants were a range of drilled broad leaved & grass weeds. The 200 g/l paraquat compositions were applied as a foliar spray at application rates of 75, 150 & 300 g/ha paraquat ion, and at an application volume of 200 l/ha at a weed growth stage when the grasses were tillering & the broadleaved weeds were branching.

[4] = Physical compatibility of formulations by microscopic examination; type: physicochemical; details: corresponding formulations with about 120 g/l magnesium sulphate heptahydrate

For `O=C1NCCN1CCO` [1-(2-hydroxethyl-2-imidazolidinone)], which “Mean Activity (%)” value [1] is on record?
The value was 66%.

With `NCCN1CCNCC1` [Aminoethylpiperazine] as the compound, how does the “Mean Activity (%)” value [1] read?
The value was 72%.

With `NCCCN1CCOCC1` [N-(Aminopropyl) morphiline] as the compound, how does the “Mean Activity (%)” value [1] read?
The value was 65%.

Which “Mean Activity (%)” value [1] does the source give for `C1CN2CCC1CC2` [Quinuclidine as hydrochloride salt, Quinuclidine] here?
Its value is 68%.

For `CCCCCCCCOC(=O)CC(C(=O)OCCCCCCCC)S(=O)(=O)O.[Na]` (centres unmarked) [sodium dioctyl sulfosuccinate, reference compound], which “Adjuvant level at which physical separation / two phases were observed” value ([2]; about 120 g/l paraquat ion, about 80 g/l diquat ion, alginate, about 120 g/l magnesium sulphate heptahydrate) is on record?
Its value is “below 10 g/l”.

For aminoethylpiperazine [AEP], which “Effect on biological performance of substituting conventional adjuvant system by AEP” value [3] is on record?
The value was “no deleterious effect”.

What about the “Physical compatibility when conventional surfactants were replaced by AEP” value [4] of the same compound?
The value was “significant improvement”.

And the “Adjuvant loading compatible with compositions of WO 02/076212” value ([2]; actual amine)?
Its value is no less than 40 g/L.
